Results reported in patent US20020082224A1, “NON-IMMUNOGENIC PRODRUGS AND SELECTABLE MARKERS FOR USE IN GENE THERAPY” (priority 1997, published 2002).

Tests used:
HT1080 cells = experiment: Tumor growth in nude mice inoculated with parental HT1080 cells, dosed with EP; assay type: in vivo, nude mice (Balb/c); settings: s.c. inoculation of 5e5 cells, EP dosed 2-10 days after inoculation
Procedure: (§1) hPLAP is able to convert the prodrugs, mitomycin phosphate (MOP) and etoposide phosphate (EP), into an active mitomycin C derivative, mitomycin alcohol, and etoposide. 5e5 HT1080 cells or HT/hPLAP cells (HT1080 cells stably expressing hPLAP) are inoculated subcutaneously into nude mice (Balb/c). Tumor development occurs in 7-14 days. Etoposide phosphate is prepared by the method of […] et al., Cancer Res. 49:5789-92, 1988, or obtained from a pharmacy (e.g., manufactured by Bristol-Myers Squibb). Animals are dosed with EP as described ([…] et al., 1988) 2-10 days after inoculation with cells.

[1] = system: HT/hPLAP cells (HT1080 cells stably expressing hPLAP); experiment: Tumor growth in nude mice inoculated with HT/hPLAP cells, dosed with EP; assay type: in vivo, nude mice (Balb/c)
Procedure: as §1

[2] = system: acute myeloblastic leukemia (AML); settings: as a single agent; % of patients; cited from earlier work
[3] = cited from earlier work

Structure (SMILES) | effect on tumors from parental HT1080 cells (HT1080 cells) | specificity of EP effect, HT1080 cells in one flank and HT/hPLAP cells in the contralateral flank ([1]; both cell types in the same animal) | effect on tumor growth of HT/hPLAP cells ([1]; s.c. inoculation of 5e5 cells, EP dosed 2-10 days after inoculation) | remission induced in patients with acute myeloblastic leukemia (AML) [2] [%] | concentrations in the CSF relative to plasma ([3]; IV infusion, after 2 hours of continuous infusion) [%] | Plasma half life ([3]; due to rapid deamination)
COc1cc([C@@H]2c3cc4c(cc3[C@@H](O[C@@H]3O[C@@H]5CO[C@@H](C)O[C@H]5[C@H](O)[C@H]3O)[C@H]3COC(=O)[C@H]23)OCO4)cc(OC)c1OP(=O)(O)O [EP, etoposide phosphate] | resistant to the effect of EP | specific for cells expressing HPLAP | dose-dependent reduction in tumor growth | – | – | –
Nc1ccn([C@@H]2O[C@H](CO)[C@@H](O)[C@@H]2O)c(=O)n1 [ara-C, cytosine arabinoside] | – | – | – | 50 | 50 | less than 20 minutes
